This passage reports pest or weed control results from patent publication US8551510B2, “Bed bug control and repellency” (Bedoukian Research, Inc., priority 2009, dated 2013).

This test relates to bed bugs. In words: Choice test with unconcealed bed bugs on filter paper discs, test compound in acetone vs. acetone only (percent repellency). The format is in vivo. As to the method: This test was undertaken employing unconcealed bugs. Two semicircular discs of filter paper, 9 cm in radius treated with 1 ml of solution to wet the entire surface, one treated with an acetone solution of the test compound and one only acetone treated were placed on the lid of a Petri dish. Five replicates of ten (10) bed bugs were release into the center of the lids of the Petri dish with a choice of the test compound treated or only acetone treated substrate. The distribution of bed bugs was recorded at ½, […], 2, 6 and 24 hours post-treatment. Paired t-tests were conducted for each treatment to ascertain whether or not there was a statistically significant difference in the number of bed bugs on the treated vs. untreated discs.

Read-outs that look alike come from different tables or passages of the source.

Turning to `CC/C=C\CC1C(=O)CCC1CC(=O)OC` (stereo not shown) [Methyl jasmonate, (Z)-methyl 2-(3-oxo-2-(pent-2-enyl)cyclopentyl)acetate], the pest or weed control at 0.2 % (chemical at 0.2% in acetone on filter paper, 0.5 hr post-treatment, read-out: percent repellency at 0.5 hr) was determined as 80%; the pest or weed control at 0.2 % (chemical at 0.2% in acetone on filter paper, 1 hr post-treatment, read-out: percent repellency at 1 hr) is 90%; the pest or weed control at 0.2 % (chemical at 0.2% in acetone on filter paper, 6 hr post-treatment, read-out: percent repellency at 6 hr) was 90%; the pest or weed control at 0.2 % (chemical at 0.2% in acetone on filter paper, 24 hr post-treatment, read-out: percent repellency at 24 hr) was determined as 88%; the pest or weed control at 0.2 % (chemical at 0.2%, average of 0.5, 1, 6 and 24 hr, read-out: percent repellency, Average) was found to be 87%.
In the case of `CC1=CCCC(C)(C)C1/C=C/C(=O)CC(C)C` (stereo not shown) [Isobutylionone, (E)-5-Methyl-1-(2,6,6-trimethyl-1-cyclohex-2-enyl) hex-1-en-3-one], the pest or weed control at 0.5 % runs as follows: (chemical at 0.5% in acetone on filter paper, 0.5 hr post-treatment, read-out: percent repellency at 0.5 hr) 100%; (chemical at 0.5% in acetone on filter paper, 1 hr post-treatment, read-out: percent repellency at 1 hr) 98%; (chemical at 0.5% in acetone on filter paper, 6 hr post-treatment, read-out: percent repellency at 6 hr) 94%; (chemical at 0.5% in acetone on filter paper, 24 hr post-treatment, read-out: percent repellency at 24 hr) 94%; (chemical at 0.5%, average of 0.5, 1, 6 and 24 hr, read-out: percent repellency, Average) 96.5%.
